# According to article PMC7385619, “A triple action CDK4/6-PI3K-BET inhibitor with augmented cancer cell cytotoxicity” (Cell Discovery, 2020):
# Columns and labels:
# Type in all cases: cell-based
# [1] = tested on: mantle cell lymphoma (Granta-519, Mino, and Jeko-1); assay: Cell viability (cytotoxicity) assay, mantle cell lymphoma cells; conditions: Homo sapiens; 48 hours, CCK8 or Alamar Blue; curves of Fig. 1f-j; read-out: Half maximal inhibitory concentration (IC50) in cell line cytotoxicity assays, Mantle Cell Lymphoma
# [2] = tested on: Hepatocellular carcinoma cells (Hep3B, HepG2, and Huh7); assay: Cell viability (cytotoxicity) assay, hepatocellular carcinoma cells; conditions: Homo sapiens; 48 hours, CCK8 or Alamar Blue; curves of Fig. 1f-j; read-out: Half maximal inhibitory concentration (IC50) in cell line cytotoxicity assays, Hepatocellular Carcinoma
# [3] = tested on: neuroblastoma cells (CHLA-255, CHLA-136, and SMS-KNCR); assay: Cell viability (cytotoxicity) assay, neuroblastoma cells; conditions: Homo sapiens, 48 hours, CCK8 or Alamar Blue, curves of Fig. 1f-j, read-out: Half maximal inhibitory concentration (IC50) in cell line cytotoxicity assays, Neuroblastoma
structure (smiles),measurement,setting,value
"CC(=O)c1c(C)c2cnc(Nc3ccc(N4CCNCC4)cn3)nc2n(C2CCCC2)c1=O [Palbociclib, reference compound]",IC50,[1],8.4 µM
same,IC50,[2],11.9 µM
same,IC50,[3],9.2 µM
